In brackets after ≈: the same amount, converted by molar mass. Values belong to the molecule of their own block, whether it stands above or below them.
Experiments:
HL-60 [1] = experiment: Antiproliferative activity against human HL-60 cells assessed as inhibition of cell growth incubated for 48 hrs by WST-1 assay; type: functional, cell-based; conditions: HL-60, 48 h
K562 [2] = experiment: Antiproliferative activity against human K562 cells assessed as inhibition of cell growth incubated for 48 hrs by WST-1 assay; type: functional, cell-based; conditions: K562, 48 h
[3] = Antiproliferative activity against mouse […] cells assessed as inhibition of cell growth; type: functional, cell-based
KB [4] = experiment: Antiproliferative activity against drug-sensitive human KB cells assessed as inhibition of cell growth; type: functional, cell-based
[5] = Antiproliferative activity against vincristine-resistant human KB cells assessed as inhibition of cell growth; type: functional, cell-based
KB [6] = experiment: Antiproliferative activity against human KB cells assessed as inhibition of cell growth incubated for 72 hrs by neutral red based colorimetric assay; type: functional
MCF7 [7] = experiment: Antiproliferative activity against human MCF7 cells assessed as inhibition of cell growth incubated for 24 hrs by MTT assay; type: functional, cell-based; conditions: MCF7, 24 h
L1210 = experiment: Antiproliferative activity against mouse L1210 cells assessed as inhibition of cell growth incubated for 24 hrs by MTT assay; type: functional, cell-based; conditions: L1210, 24 h
[8] = Antiproliferative activity against human BC cells assessed as inhibition of cell growth incubated for 24 hrs by MTT assay; type: functional, cell-based
AGS = experiment: Antiproliferative activity against human AGS cells assessed as inhibition of cell growth incubated for 24 hrs by MTT assay; type: functional, cell-based
K562 [9] = experiment: Antiproliferative activity against human K562 cells assessed as inhibition of cell growth by MTT assay; type: functional, cell-based
A549 [10] = experiment: Antiproliferative activity against human A549 cells assessed as inhibition of cell growth by MTT assay; type: functional, cell-based
SMMC-7721 = experiment: Antiproliferative activity against human SMMC-7721 cells assessed as inhibition of cell growth incubated for 48 hrs by MTS assay; type: functional, cell-based; conditions: SMMC-7721, 48 h
SW480 [11] = experiment: Antiproliferative activity against human SW480 cells assessed as inhibition of cell growth incubated for 48 hrs by MTS assay; type: functional, cell-based; conditions: SW480, 48 h
A549 [12] = experiment: Antiproliferative activity against human A549 cells assessed as inhibition of cell growth incubated for 48 hrs by MTS assay; type: functional, cell-based; conditions: A549, 48 h
MCF7 [13] = experiment: Antiproliferative activity against human MCF7 cells assessed as inhibition of cell growth incubated for 48 hrs by MTS assay; type: functional, cell-based; conditions: MCF7, 48 h
HL-60 [14] = experiment: Antiproliferative activity against human HL-60 cells assessed as inhibition of cell growth incubated for 48 hrs by MTS assay; type: functional, cell-based; conditions: HL-60, 48 h
HeLa [15] = experiment: Antiproliferative activity against human HeLa cells assessed as inhibition of cell growth incubated for 6 hrs; type: functional, cell-based
HeLa [16] = experiment: Antiproliferative activity against human HeLa cells assessed as inhibition of cell growth incubated for 24 hrs; type: functional, cell-based
MCF7 [17] = experiment: Antiproliferative activity against human MCF7 cells assessed as inhibition of cell growth incubated for 48 hrs by MTT assay; type: functional, cell-based; conditions: MCF7, 48 h
SW480 [18] = experiment: Antiproliferative activity against human SW480 cells assessed as inhibition of cell growth incubated for 48 hrs by MTT assay; type: functional, cell-based; conditions: SW480, 48 h
HeLa [19] = experiment: Antiproliferative activity against human HeLa cells assessed as inhibition of cell growth incubated for 48 hrs by MTT assay; type: functional, cell-based
HepG2 = experiment: Antiproliferative activity against human HepG2 cells assessed as inhibition of cell growth by MTT assay; type: functional, cell-based

IC50 (HL-60 [1]): 9.1 µM
IC50 (K562 [2]): 9.3 µM
SMILES: CC[C@]12C=CCN3CC[C@@]4(c5cc([C@@]6(C(=O)OC)C[C@@H]7CC(=O)N(CCc8c6[nH]c6ccccc86)C7)c(OC)cc5N(C)[C@H]4[C@@](O)(C(=O)OC)C1)[C@@H]32

IC50 (KB [4]): 0.57 µM
SMILES: CC[C@H]1[C@@H]2CCN3CC[C@@]4(C5=C2C[C@@]2(CN5c5ccccc54)C4=Nc5ccccc5[C@]45CCN4CC[C@H]2[C@H](CC)[C@@H]45)[C@@H]13
IC50 [5]: 0.57 µM

IC50 (KB [6]): 0.008 µM
SMILES: CC[C@]1(O)C[C@@H]2CN(CCc3c([nH]c4ccccc34)[C@@](C(=O)OC)(c3cc4c(cc3OC)N(C)[C@H]3[C@@](O)(C(=O)OC)[C@H](OC(C)=O)[C@]5(CC)C=CCN6CC[C@]43[C@@H]65)C2)C1 [VINBLASTINE]

IC50 (MCF7 [7]): 32.2 µM
SMILES: O=C1C[C@@H]2c3cc(O)c(O)cc3[C@@]3(Nc4ccccc4C3=O)[C@@]23C(=O)c2ccccc2N13

IC50 (MCF7 [7]): 31.7 µM
SMILES: O=C1C[C@H]2c3cc(O)c(O)cc3[C@]3(Nc4ccccc4C3=O)[C@]23C(=O)c2ccccc2N13

IC50 (MCF7 [7]): 78.5 µM
SMILES: O=C1C[C@H]2c3ccc(O)c(O)c3[C@]3(Nc4ccccc4C3=O)[C@]23C(=O)c2ccccc2N13

IC50 (SMMC-7721): 13.1 µM
IC50 (SW480 [11]): 13.1 µM
IC50 (A549 [12]): 13.1 µM
IC50 (MCF7 [13]): 13.1 µM
IC50 (HL-60 [14]): 13.1 µM
SMILES: CC[C@]12C=C[C@H](C3=C[C@@]4(CC)CC(C(=O)OC)=C5Nc6ccccc6[C@@]56CCN([C@@H]3CC(C)=O)[C@@H]46)N3CC[C@]4(C(=C(C(=O)OC)C1)Nc1ccccc14)[C@@H]32

IC50 (SMMC-7721): 13.1 µM
IC50 (SW480 [11]): 13.1 µM
IC50 (A549 [12]): 13.1 µM
IC50 (MCF7 [13]): 13.1 µM
IC50 (HL-60 [14]): 13.1 µM
SMILES: CC[C@]12C=C([C@H]3C=C[C@@]4(CC)CC(C(=O)OC)=C5Nc6ccccc6[C@@]56CCN3[C@@H]46)CN3CC[C@]4(C(=C(C(=O)OC)C1)Nc1ccccc14)[C@@H]32

IC50 (HepG2): 38.1 µM
SMILES: C/C=C1/CN(C)[C@H]2Cc3c([nH]c4ccccc34)[C@H](c3c(OC)ccc4c5c6n(c34)C[C@@H]3C[C@@H](CC)[C@@H](NCC5)[C@@]6(C(=O)OC)C3)C[C@H]1[C@]2(CO)C(=O)OC

The remaining lines, values behind:

SMILES: Brc1ccc2c(-c3c[nH]c(-c4c[nH]c5ccccc45)n3)c[nH]c2c1 [NORTOPSENTIN C]
IC50 [3]: 1.7 µg/mL (≈ 4.51 µM)

SMILES: O=C(C1=NC(c2c[nH]c3cc(Br)ccc23)CN1)c1c[nH]c2ccccc12 (configuration not stated) [SPONGOTINE A]
IC50 (L1210): 1.1 µg/mL (≈ 2.7 µM)
IC50 [8]: 10.7 µg/mL (≈ 26.3 µM)
IC50 (AGS): 1.1 µg/mL (≈ 2.7 µM)

SMILES: CO[C@@]1(C(=O)c2c[nH]c3ccccc23)N=C(c2c[nH]c3ccccc23)C(=O)N1
IC50 (K562 [9]): 24.2 µM
IC50 (A549 [10]): 24.2 µM

SMILES: CO[C@@]1(C(=O)c2c[nH]c3cc(O)ccc23)N=C(c2c[nH]c3cc(Br)ccc23)C(=O)N1
IC50 (K562 [9]): 24.2 µM
IC50 (A549 [10]): 24.2 µM

SMILES: NC[C@@H](NC(=O)C(=O)c1c[nH]c2ccccc12)c1c[nH]c2cc(Br)ccc12
IC50 (HeLa [15]): > 200 µM
IC50 (HeLa [16]): > 200 µM

SMILES: C/C=C1/CN2CC[C@@]34c5cc(OC)c(-c6cc7c8c(n(C)c7cc6OC)[C@@H]6[C@H]7O[C@@H](C)[C@H](CN6C(=O)C(C)C)[C@H]7[C@H]8C(=O)OC)c(C)c5N(C)[C@@]23CC[C@H]1[C@H]4C(=O)OC
IC50 (KB [6]): 6 µM

SMILES: CC[C@@]12CC(C(=O)OC)=C3Nc4cc5c(cc4[C@@]34CCN(C[C@@H]3O[C@@H]31)[C@@H]24)[C@@H]1[C@H](O5)[C@@H](O)[C@@]2(CC)CC(C(=O)OC)=C3Nc4c(cc(O)c(OC)c4OC)[C@@]34CCN1[C@@H]24
IC50 (MCF7 [17]): 1.42 µM
IC50 (SW480 [18]): 1.42 µM
IC50 (HeLa [19]): 1.42 µM

SMILES: O=C(NCC(=O)c1c[nH]c2cc(Br)ccc12)NC(=O)c1c[nH]c2cc(O)ccc12
IC50 (K562 [9]): > 90 µM
IC50 (A549 [10]): > 90 µM

SMILES: CO[C@@]1(C(=O)c2c[nH]c3ccccc23)N=C(c2c[nH]c3cc(Br)ccc23)C(=O)N1
IC50 (K562 [9]): 24.2 µM
IC50 (A549 [10]): 24.2 µM

Source: ChEMBL document CHEMBL5331060, “Bisindole natural products: A vital source for the development of new anticancer drugs” (Eur J Med Chem, 2022)
